Source: patent US8067424B2, “Selective inhibitors for cyclin-dependent kinases” (Emory University, priority 2007, dated 2011)
Read-outs that look alike come from different tables or passages of the source.

Columns and labels:
[1] = target: AURORA C (Homo sapiens, UniProt Q9UQB9); assay: Kinase screen: Aurora C assay; assay type: biochemical; details: read-out: Mean Remaining Enzyme Activity (%)
Method: Generally, the same procedure was used for all assays. Since the total assay volume was 25.5 microliters, 0.5 microliters of inhibitors at 51× assay concentration were added to the plates before any other addition.
The basic procedure was to add 0.5 microliters inhibitor/control in DMSO to plate. Fifteen microliters of enzyme/substrate/buffer mix were added and incubated for 5 min. Ten microliters MgATP at the relevant concentration were added and incubated for 30 min. The assay was stopped by adding 5 microliters of 3% orthophosphoric acid. The assay was transferred to a p81 filter plate and read in a scintillation counter of 30 sec/well. Note that this assay procedure was not followed for MKK1, which instead involved a two-step assay, and PKC alpha, which required the addition of lipid vesicles.
Aurora C assay: Aurora C (5-20 mU diluted in 50 mM Tris pH 7.5, 0.1 mM EGTA, 0.1% b-mercaptoethanol, 1 mg/ml BSA) was assayed against a substrate peptide ([…]) (SEQ ID NO: 26) in a final volume of 25.5 μl containing 50 mM Tris pH 7.5, 0.05% b-mercaptoethanol, 300 μM substrate peptide, 10 mM magnesium acetate and 0.005 mM [33P-g-ATP] (50-1000 cpm/pmole) and incubated for 30 min at room temperature. Assays were stopped by addition of 5 μl of 0.5 M (3%) orthophosphoric acid and then harvested onto P81 Unifilter plates with a wash buffer of 50 mM orthophosphoric acid.

[2] = system: MCF-7 tumors; assay: MCF-7 tumor growth in nude mice, BS-181 i.p.; assay type: in vivo, nu/nu-BALB/c athymic nude mice; details: i.p. twice daily, 14 days
Text: This example illustrates that BS-181 is capable of inhibiting MCF-7 tumor growth in nude mice. The following protocol was used in these mouse xenograft experiments. Female, 7-week-old, nu/nu-BALB/c athymic nude mice were purchased from Harlan Olac Ltd. The animals were housed in isolated ventilator cages (IVC) in a 12-h light/dark cycle. The animals received sterilized water and sterile rodent food ad libitum. All procedures were approved by the CBS, Imperial College London Ethics Committee and were covered by a Government Home Office project license for these specific studies. Before inoculation of animal with cells, a 0.72 mg 17β Estradiol 60-day release pellet was implanted subcutaneously (Innovative Research of America, USA). For insertion, animals were anaesthetised, an incision was made to the flank of the animals under aseptic conditions and pellets were implanted. The wound was closed with stainless steel sutures. MCF-7 cells (5×10^6 cells) were injected subcutaneously in not more than 0.1 ml volume into the flank of the animals. Tumor measurements were performed twice per week, and volumes were calculated using the formula ½ [length (mm)]×[width (mm)]^2. […] Throughout the 14-day treatment period animal weights were determined each day and tumor volume every 48 hours.

[3] = system: A498; assay: cells; details: Homo sapiens
[4] = system: ACHN; details: for Mean Optical Densities / Percent Growth: ACHN
[5] = system: M14
[6] = system: UACC-257
[7] = system: RXF 393
[8] = system: UACC-257; assay: cells; details: Homo sapiens
[9] = system: IGROV1
[10] = system: EKVX; assay: cells; details: Homo sapiens
[11] = system: NCI-H522; assay: cells; details: Homo sapiens
[12] = system: TK-10; assay: cells; details: Homo sapiens
[13] = system: SW-620; assay: cells; details: Homo sapiens
[14] = system: HS 578T; assay: cells; details: Homo sapiens
[15] = UACC-257, log10 concentration −4.0
[16] = UACC-257, log10 concentration −5.0
[17] = UACC-257, log10 concentration −6.0
[18] = UACC-257, log10 concentration −7.0
[19] = UACC-257, log10 concentration −8.0
[20] = RXF 393, log10 concentration −4.0
[21] = RXF 393, log10 concentration −5.0
[22] = RXF 393, log10 concentration −6.0
[23] = RXF 393, log10 concentration −7.0
[24] = RXF 393, log10 concentration −8.0
[25] = IGROV1, log10 concentration −4.0
[26] = IGROV1, log10 concentration −5.0
[27] = IGROV1, log10 concentration −6.0
[28] = IGROV1, log10 concentration −7.0
[29] = IGROV1, log10 concentration −8.0

Sequence of AURORA C (Q9UQB9 whole entry): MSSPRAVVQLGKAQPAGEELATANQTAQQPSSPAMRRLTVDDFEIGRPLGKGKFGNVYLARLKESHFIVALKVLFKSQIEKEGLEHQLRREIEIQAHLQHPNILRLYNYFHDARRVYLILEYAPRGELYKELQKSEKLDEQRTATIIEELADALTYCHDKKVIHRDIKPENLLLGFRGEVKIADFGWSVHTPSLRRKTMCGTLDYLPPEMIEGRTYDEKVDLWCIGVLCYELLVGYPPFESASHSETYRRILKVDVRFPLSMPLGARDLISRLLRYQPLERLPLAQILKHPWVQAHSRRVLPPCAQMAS

## CC(C)c1cnn2c(NCc3ccccc3)cc(NCCCCCCCN)nc12 [BS-181]
[1]
  remaining activity at 10 µM: 98%
[2]
  Change in animal weight: nearly constant
[2]; different doses
  Increase in tumor volume relative to day one: increased more slowly with increasing dosage

## CC(C)c1cnn2c(NCc3ccccc3)cc(N[C@@H](CO)[C@H](O)CO)nc12 [ICEC0318, (3S)-3-(7-(Benzylamino)-3-isopropylpyrazolo[1,5-a]pyrimidin-5-ylamino)butane-1,2,4-triol]
[3]; A498
  GI50: 235 nM
[3]; A498, read-out: LC50
  CC50: 993 nM
[4]; ACHN (Renal Cancer)
  TGI: >1.00E−4
[4]; log10 concentration −4.0
  Mean Optical Densities: 0.343
  Percent Growth: 5%
[4]; log10 concentration −5.0
  Mean Optical Densities: 0.347
  Percent Growth: 5%
[4]; log10 concentration −6.0
  Mean Optical Densities: 0.358
  Percent Growth: 6%
[4]; log10 concentration −7.0
  Mean Optical Densities: 1.080
  Percent Growth: 75%
[4]; log10 concentration −8.0
  Mean Optical Densities: 1.302
  Percent Growth: 96%
[5]; M14 (Melanoma)
  TGI: 1.00E−6
[5]; M14, log10 concentration −4.0
  Mean Optical Densities: 0.125
  Percent Growth: −62%
[5]; M14, log10 concentration −5.0
  Mean Optical Densities: 0.246
  Percent Growth: −26%
[5]; M14, log10 concentration −6.0
  Mean Optical Densities: 0.333
[5]; M14, log10 concentration −7.0
  Mean Optical Densities: 1.032
  Percent Growth: 97%
[5]; M14, log10 concentration −8.0
  Mean Optical Densities: 1.074
  Percent Growth: 103%
[6]; UACC-257 (Melanoma)
  TGI: 3.88E−5
[6]; [15]
  Mean Optical Densities: 0.848
  Percent Growth: −4%
[6]; [16]
  Mean Optical Densities: 0.933
  Percent Growth: 5%
[6]; [17]
  Mean Optical Densities: 0.948
  Percent Growth: 7%
[6]; [18]
  Mean Optical Densities: 1.891
  Percent Growth: 100%
[6]; [19]
  Mean Optical Densities: 1.906
  Percent Growth: 102%
[7]; RXF 393 (Renal Cancer)
  TGI: 5.27E−7
[7]; [20]
  Mean Optical Densities: 0.239
  Percent Growth: −54%
[7]; [21]
  Mean Optical Densities: 0.308
  Percent Growth: −40%
[7]; [22]
  Mean Optical Densities: 0.333
  Percent Growth: −35%
[7]; [23]
  Mean Optical Densities: 0.928
  Percent Growth: 92%
[7]; [24]
  Mean Optical Densities: 0.980
  Percent Growth: 103%
[8]; UACC-257
  GI50: 344 nM
[8]; UACC-257, read-out: LC50
  CC50: > 100000 nM
[9]; IGROV1 (Ovarian Cancer)
  TGI: >1.00E−4
[9]; [25]
  Mean Optical Densities: 0.451
  Percent Growth: 4%
[9]; [26]
  Mean Optical Densities: 0.510
  Percent Growth: 10%
[9]; [27]
  Mean Optical Densities: 0.528
  Percent Growth: 12%
[9]; [28]
  Mean Optical Densities: 1.088
  Percent Growth: 68%
[9]; [29]
  Mean Optical Densities: 1.429
  Percent Growth: 103%
[10]
  GI50: 286 nM
[10]; read-out: LC50
  CC50: > 100000 nM
[11]; NCI-H522
  GI50: 375 nM
[11]; NCI-H522, read-out: LC50
  CC50: > 100000 nM
[12]; TK-10
  GI50: 377 nM
[12]; TK-10, read-out: LC50
  CC50: > 100000 nM
[13]; SW-620
  GI50: 285 nM
[13]; SW-620, read-out: LC50
  CC50: > 100000 nM
[14]
  GI50: 276 nM
[14]; read-out: LC50
  CC50: > 100000 nM
